This is an account of results in patent US5202319A, “Substituted 3-amino-2,3,4,5-tetrahydro-1-aryloxy-3-benzazepines” (Hoechst-Roussel Pharmaceuticals Inc., priority 1991, dated 1993).

The test system of one test is serotonin (5HT) uptake. The test can be described thus: 3H-Serotonin Uptake in Rat Whole Brain and Hypothalamic Synaptosomes. To be noted: 50 nM 3H-5HT, 37° C., 5 minutes, log-probit analysis, read-out: Inhibition of ^3 H-serotonin Uptake IC50. In kind it is biochemical. On the procedure:
A. Animals: Male CR Wistar rats (100-125 g).
3. […] This is used to dilute the specific activity of radiolabeled 5HT.
The final desired concentration of ^3 H-5HT in the assay is 50 nM. The dilution factor is 0.8.
Male Wistar rats are decapitated and the brain rapidly removed. […] Homogenization should be done with 4-5 up and down strokes at medium speeds to minimize synaptosome lysis. […] The supernatant (S1) is decanted and is used for uptake experiments.
Tubes are incubated at 37° C. under a 95% O2 /5% CO2 atmosphere for 5 minutes. For each assay, 3 tubes are incubated with 20 μl of vehicle at 0° C. in an ice bath. After incubation all tubes are immediately centrifuged at 4000 g for 10 minutes. The supernatant fluid is aspirated and the pellets dissolved by adding 1 ml of solubilizer (Triton X-100+50% EtOH, 1:4 v/v). […] Active uptake is the difference between cpm at 37° C. and 0° C. […] IC50 values are derived from log-probit analysis.

The conditions of test [1]: in vivo; cited from earlier work.
The subject of another test is 5HT uptake sites. To be noted: in vitro; cited from earlier work.
The test system of a further test is [^3 H]-5HT transport. Conditions: CNS tissue; cited from earlier work.
The next test deals with 5HT uptake. To be noted: cited from earlier work.

Structures can show the parent of a compound that is named as a salt.

With `NN1CCc2ccccc2C(Oc2ccc(C(F)(F)F)cc2)C1` (stereo not drawn) [3-Amino-2,3,4,5-tetrahydro-1-(4-trifluoromethylphenoxy)-3-benzazepine maleate], the IC50 in the test on serotonin (5HT) uptake worked out at 9.36 µM. For `COc1cc2c(cc1OC)C(Oc1ccccc1)CN(N)CC2` (stereo not drawn) [3-Amino-7,8-dimethoxy-1-phenoxy-2,3,4,5-tetrahydro-3-benzazepine maleate], the IC50 in the test with serotonin (5HT) uptake was 2.13 µM. Consider `O=c1n(CCCN2CCN(c3cccc(Cl)c3)CC2)nc2ccccn12` [Trazodone], for which the clinical effectiveness result in test [1] is given as “clinically effective antidepressants”. For the compound `CN(C)CCCN1c2ccccc2CCc2ccccc21` [[^3 H]-imipramine], the “[^3 H]-imipramine binding” value with 5HT uptake sites is “labels 5HT uptake sites”. `C[C@@H]1O[C@@H](O[C@H]2C[C@@H](O)[C@]3(CO)[C@H]4[C@H](O)C[C@]5(C)[C@@H](C6=CC(=O)OC6)CC[C@]5(O)[C@@H]4CC[C@]3(O)C2)[C@H](O)[C@H](O)[C@H]1O` [ouabain]: in test [^3 H]-5HT transport, the “inhibition of [^3 H]-5HT transport” value was “inhibited”.

Take `CN(C)C/C=C(/c1ccc(Br)cc1)c1cccnc1` [zimelidine]: the “effects on 5HT uptake” value in the test with 5HT uptake was “fairly selective effects on 5HT uptake”.

What is called IC50 is the point on the concentration scale where inhibition reaches its midpoint.
